Results published in paper PMC7071059, “Targeting Receptor Tyrosine Kinase VEGFR-2 in Hepatocellular Cancer: Rational Design, Synthesis and Biological Evaluation of 1,2-Disubstituted Benzimidazoles” (Molecules, 2020).

Key:
[1] = system: HepG2 cell line; assay: In vitro cytotoxic activity, Sulfo-Rhodamine-B (SRB) assay; assay type: cell-based, human; details: Homo sapiens, HepG2, 48 h, SRB assay, 48 h; mean of three independent experiments; read-out: IC50 (μM) on HepG2 Cell Line
[2] = system: NCI-H460; assay: NCI 60 one dose (10 μM) anticancer assay; assay type: cell-based; details: Homo sapiens, 10 µM one dose, Non-small cell lung Cancer, read-out: Growth Inhibition % NCI-H460
Protocol: (§1) Some of the synthesized compounds were selected by the NCI, Bethesda, MD, USA for evaluation of their anticancer activity. An in vitro one dose (10 μM) anticancer assay was conducted on a full NCI 60-cell line panel derived from 9 different cancer types. Table 2 presents the percent of growth inhibition of some cell lines. […] K-562 and MOLT-4 from leukemia, NCI-H522 from non-small cell lung cancer, HCT-116 from colon cancer, SK-MEL-5 and UACC-62 from melanoma, UO-31 from renal cancer, PC-3 from prostate cancer and HS 578T and T-47D from breast cancer are the most sensitive cell lines to the tested compounds. No growth inhibition was observed from the selected compounds against COLO205, HCC-2998, MALME-3M, SK-MEL-28, DU-145 and BT-549 cell lines. […] Against UO-31 from renal cancer and PC-3 from prostate cancer, it inhibited the growth of 44% and 58% of the cancer cells, respectively.

[3] = system: 786-0; assay: NCI 60 one dose (10 μM) anticancer assay; assay type: cell-based; details: Homo sapiens, 10 µM one dose, Renal Cancer, read-out: Growth Inhibition % 786-0
Protocol: as §1

[4] = system: NCI-H522; assay: NCI 60 one dose (10 μM) anticancer assay; assay type: cell-based; details: Homo sapiens, 10 µM one dose, Non-small cell lung Cancer, read-out: Growth Inhibition % NCI-H522
Protocol: as §1

[5] = system: MDA-MB-468; assay: NCI 60 one dose (10 μM) anticancer assay; assay type: cell-based; details: Homo sapiens, 10 µM one dose, Breast Cancer, read-out: Growth Inhibition % MDA-MB-468
Protocol: as §1

[6] = system: HCT-15; assay: NCI 60 one dose (10 μM) anticancer assay; assay type: cell-based; details: Homo sapiens, 10 µM one dose, Colon Cancer, read-out: Growth Inhibition % HCT-15
Protocol: as §1

[7] = system: HS 578T; assay: NCI 60 one dose (10 μM) anticancer assay; assay type: cell-based; details: Homo sapiens, 10 µM one dose, Breast Cancer, read-out: Growth Inhibition % HS 578T
Protocol: as §1

[8] = system: CAK1-1; assay: NCI 60 one dose (10 μM) anticancer assay; assay type: cell-based; details: 10 µM one dose; Renal Cancer; read-out: Growth Inhibition % CAK1-1
Protocol: as §1

[9] = system: NCI-H322M; assay: NCI 60 one dose (10 μM) anticancer assay; assay type: cell-based; details: Homo sapiens, 10 µM one dose, Non-small cell lung Cancer, read-out: Growth Inhibition % NCI-H322M
Protocol: as §1

[10] = system: SW-620; assay: NCI 60 one dose (10 μM) anticancer assay; assay type: cell-based; details: Homo sapiens, 10 µM one dose, Colon Cancer, read-out: Growth Inhibition % SW-620
Protocol: as §1

[11] = system: UO-31; assay: NCI 60 one dose (10 μM) anticancer assay; assay type: cell-based; details: Homo sapiens, 10 µM one dose, Renal Cancer, read-out: Growth Inhibition % UO-31
Protocol: as §1

[12] = system: SF-268; assay: NCI 60 one dose (10 μM) anticancer assay; assay type: cell-based; details: Homo sapiens, 10 µM one dose, CNS Cancer, read-out: Growth Inhibition % SF-268
Protocol: as §1

[13] = system: A549/ATTC; assay: NCI 60 one dose (10 μM) anticancer assay; assay type: cell-based; details: Homo sapiens, 10 µM one dose, Non-small cell lung Cancer, read-out: Growth Inhibition % A549/ATTC
Protocol: as §1

[14] = system: OVCAR-5; assay: NCI 60 one dose (10 μM) anticancer assay; assay type: cell-based; details: Homo sapiens, 10 µM one dose, Ovarian Cancer, read-out: Growth Inhibition % OVCAR-5
Protocol: as §1

[15] = system: BT-549; assay: NCI 60 one dose (10 μM) anticancer assay; assay type: cell-based; details: Homo sapiens, 10 µM one dose, Breast Cancer, read-out: Growth Inhibition % BT-549
Protocol: as §1

[16] = system: NCI-H23; assay: NCI 60 one dose (10 μM) anticancer assay; assay type: cell-based; details: Homo sapiens, 10 µM one dose, Non-small cell lung Cancer, read-out: Growth Inhibition % NCI-H23
Protocol: as §1

[17] = system: NCI/ADR-RES; assay: NCI 60 one dose (10 μM) anticancer assay; assay type: cell-based; details: Homo sapiens, 10 µM one dose, Ovarian Cancer, read-out: Growth Inhibition % NCI/ADR-RES
Protocol: as §1

[18] = system: SK-MEL-5; assay: NCI 60 one dose (10 μM) anticancer assay; assay type: cell-based; details: Homo sapiens, 10 µM one dose, Melanoma, read-out: Growth Inhibition % SK-MEL-5
Protocol: as §1

[19] = system: SR; assay: NCI 60 one dose (10 μM) anticancer assay; assay type: cell-based; details: Homo sapiens, 10 µM one dose, Leukemia, read-out: Growth Inhibition % SR
Protocol: as §1

[20] = system: MDA-MB-231/ATTC; assay: NCI 60 one dose (10 μM) anticancer assay; assay type: cell-based; details: Homo sapiens, 10 µM one dose, Breast Cancer, read-out: Growth Inhibition % MDA-MB-231/ATTC
Protocol: as §1

[21] = system: HOP-62; assay: NCI 60 one dose (10 μM) anticancer assay; assay type: cell-based; details: Homo sapiens, 10 µM one dose, Non-small cell lung Cancer, read-out: Growth Inhibition % HOP-62
Protocol: as §1

[22] = system: NCI-H226; assay: NCI 60 one dose (10 μM) anticancer assay; assay type: cell-based; details: Homo sapiens, 10 µM one dose, Non-small cell lung Cancer, read-out: Growth Inhibition % NCI-H226
Protocol: as §1

[23] = system: MCF7; assay: NCI 60 one dose (10 μM) anticancer assay; assay type: cell-based; details: Homo sapiens, 10 µM one dose, Breast Cancer, read-out: Growth Inhibition % MCF7
Protocol: as §1

[24] = system: HCT-116; assay: NCI 60 one dose (10 μM) anticancer assay; assay type: cell-based; details: Homo sapiens, 10 µM one dose, Colon Cancer, read-out: Growth Inhibition % HCT-116
Protocol: as §1

[25] = system: KM12; assay: NCI 60 one dose (10 μM) anticancer assay; assay type: cell-based; details: Homo sapiens, 10 µM one dose, Colon Cancer, read-out: Growth Inhibition % KM12
Protocol: as §1

[26] = system: A498; assay: NCI 60 one dose (10 μM) anticancer assay; assay type: cell-based; details: Homo sapiens, 10 µM one dose, Renal Cancer, read-out: Growth Inhibition % A498
Protocol: as §1

[27] = system: LOX IMVI; assay: NCI 60 one dose (10 μM) anticancer assay; assay type: cell-based; details: Homo sapiens, 10 µM one dose, Melanoma, read-out: Growth Inhibition % LOX IMVI
Protocol: as §1

[28] = system: EKVX; assay: NCI 60 one dose (10 μM) anticancer assay; assay type: cell-based; details: Homo sapiens, 10 µM one dose, Non-small cell lung Cancer, read-out: Growth Inhibition % EKVX
Protocol: as §1

[29] = system: OVCAR-4; assay: NCI 60 one dose (10 μM) anticancer assay; assay type: cell-based; details: Homo sapiens, 10 µM one dose, Ovarian Cancer, read-out: Growth Inhibition % OVCAR-4
Protocol: as §1

| SMILES | IC50 [1] | inhibition at 10 µM [2] | inhibition at 10 µM [3] | inhibition at 10 µM [4] | inhibition at 10 µM [5] | inhibition at 10 µM [6] | inhibition at 10 µM [7] | inhibition at 10 µM [8] | inhibition at 10 µM [9] | inhibition at 10 µM [10] | inhibition at 10 µM [11] | inhibition at 10 µM [12] | inhibition at 10 µM [13] | inhibition at 10 µM [14] | inhibition at 10 µM [15] | inhibition at 10 µM [16] | inhibition at 10 µM [17] | inhibition at 10 µM [18] | inhibition at 10 µM [20] | inhibition at 10 µM [21] | other results |
| --- | --- | --- | --- | --- | --- | --- | --- | --- | --- | --- | --- | --- | --- | --- | --- | --- | --- | --- | --- | --- | --- |
| CC(C)c1nc2ccccc2n1CC(=O)N/N=C/c1ccc(OCc2ccccc2)cc1 [Compound 17c, (E)-N′-(4-(Benzyloxy)benzylidene)-2-(2-isopropyl-1H-benzo[d]imidazol-1-yl)acetohydrazide] | 20.2 µM | < 10% | < 10% | 26% | < 10% | < 10% | 16% | 15% | < 10% | < 10% | 28% | < 10% | < 10% | < 10% | < 10% | < 10% | < 10% | < 10% | < 10% | < 10% | melting point: 209 to 211 °C; inhibition at 10 µM [19]: < 10%; inhibition at 10 µM [22]: < 10%; inhibition at 10 µM [23]: < 10%; inhibition at 10 µM [24]: 18%; inhibition at 10 µM [25]: < 10%; inhibition at 10 µM [26]: < 10%; inhibition at 10 µM [27]: < 10%; inhibition at 10 µM [28]: < 10% |
| Cc1ccc(-c2nc3ccccc3n2CC(=O)N/N=C/c2cccc(OCc3ccccc3)c2)o1 [Compound 17b, (E)-N′-(3-(Benzyloxy)benzylidene)-2-(2-(5-methylfuran-2-yl)-1H-benzo[d]imidazol-1-yl)acetohydrazide] | 10 µM | 27% | 26% | 28% | 20% | 35% | 25% | 33% | 21% | 13% | 57% | 37% | 42% | 14% | < 10% | 14% | 29% | 33% | 25% | 15% | melting point: 180 to 182 °C; inhibition at 10 µM [29]: 21%; inhibition at 10 µM [19]: 25%; inhibition at 10 µM [22]: 25%; inhibition at 10 µM [23]: 48%; inhibition at 10 µM [24]: 32%; inhibition at 10 µM [25]: 23%; inhibition at 10 µM [26]: 16%; inhibition at 10 µM [27]: 23%; inhibition at 10 µM [28]: 43% |
| C/C(=N\NC(=O)Cn1c(C(C)C)nc2ccccc21)c1ccccc1 [Compound 14a, (E)-2-(2-Isopropyl-1H-benzo[d]imidazol-1-yl)-N′-(1-phenylethylidene)acetohydrazide] | 25.9 µM | < 10% | < 10% | < 10% | 29% | < 10% | 24% | 12% | < 10% | 18% | < 10% | < 10% | < 10% | 21% | < 10% | < 10% | < 10% | < 10% | < 10% | < 10% | melting point: 176 to 178 °C; inhibition at 10 µM [29]: < 10%; inhibition at 10 µM [22]: 22%; inhibition at 10 µM [23]: < 10%; inhibition at 10 µM [24]: < 10%; inhibition at 10 µM [25]: < 10%; inhibition at 10 µM [26]: 49%; inhibition at 10 µM [27]: < 10%; inhibition at 10 µM [28]: < 10% |
| CC(C)c1nc2ccccc2n1CC(=O)N/N=C/c1cccc(OCc2ccccc2)c1 [Compound 17a, (E)-N′-(3-(Benzyloxy)benzylidene)-2-(2-isopropyl-1H-benzo[d]imidazol-1-yl)acetohydrazide] | 1.98 µM | < 10% | 24% | 33% | 47% | < 10% | 20% | < 10% | < 10% | < 10% | 44% | < 10% | 16% | < 10% | 28% | 39% | < 10% | 50% | 25% | < 10% | inhibition at 10 µM [29]: < 10%; inhibition at 10 µM [19]: 64%; inhibition at 10 µM [22]: 29%; inhibition at 10 µM [23]: < 10%; inhibition at 10 µM [24]: 66%; inhibition at 10 µM [25]: < 10%; inhibition at 10 µM [26]: 17%; inhibition at 10 µM [27]: < 10%; inhibition at 10 µM [28]: 21% |
